These are literature values, as cited in patent publication US20050196379A1, “Combination therapies with L-FMAU for the treatment of hepatitis B virus infection” (priority 2002, published 2005).

The subject of series [1] is woodchuck hepatitis B virus (WHV). The settings on record: for drop of viral titers in serum: single drug, previous studies, same time frame (two weeks).
A further series concerns hepatitis B virus. The settings on record: in vivo.

For the molecule `Cc1cn([C@H]2O[C@@H](CO)[C@H](O)[C@H]2F)c(=O)[nH]c1=O` [L-FMAU, 1-(2′-deoxy-2′-fluoro-β-L-arabinofuranosyl)-thymine], the “average decrease in CCC DNA” value in series [1] (L-FMAU alone, Peek et al.) is 10 fold. Besides, the “drop of viral titers in serum” value in series [1] was ~1,000 fold. Further, in series [1] (woodchuck model), the “number of infected hepatocytes” value is reported as “decrease rapidly the number of infected hepatocytes”.

Consider “β-2-hydroxymethyl-5-(5-fluorocytosin-1-yl)-1,3-oxathiolane [β-L-FTC]”, for which, in series [1], the “drop of viral titers in serum” value was “about 56 fold”. Also, in series [1] (woodchuck model of HBV), the “effect on viral replication and viral clearance” value is recorded as “inhibit viral replication but not induce viral clearance”. In the series on hepatitis B virus, the “activity against hepatitis B virus in duck models” value is listed as “strong activity”.
